{
  "source": "patent US8663669B2",
  "about": "“Pesticide treatment of soils or substrates with sulphur compounds” (Arkema France, priority 2002, dated 2014)",
  "key": {"[1]": {"test_system": "larvae of Meloidogyne arenaria", "test": "Nematicidal in vitro test on second-stage juvenile larvae", "format": "in vivo", "conditions": "for Immobility rate after 48 h: 24 h in solution then 24 h in pure water", "method": "The second-stage juvenile larvae (the free and infesting stage) are immersed for 24 hours in the test solution and then the number of larvae paralysed are counted before transferring them into pure water for another 24 hours. At the end of the 48 hours which have thus elapsed, the larvae paralysed are again counted and the larvae truly dead are counted the next day.\n(§1) The breeding of the nematodes was carried out on tomato plants. The tests were carried out with, aqueous solutions of DMDS at 0.0001%, 0.1%, 1% and 5% by mass, of DPDS at 1%, 5% and 10% by mass, and of allicin at 0.0003%, 0.0015% and 0.003% by mass, compared with a control consisting of pure water, and repeated five times. The ovicidal activity was also evaluated according to the same modalities, by counting the number of hatchings after 5 to 20 days following exposure to the products."}, "[2]": {"test_system": "termite (Reticulitermes santonensis)", "test": "Insecticidal in vitro fumigation test on termites", "format": "in vivo", "conditions": "24 hours of fumigation, mortality counted at the end of 48 hours; 25° C.", "method": "Dead wood infested with termites was collected from the soil on ground occupied by a colony. This dead wood serves as breeding medium. The breeding is maintained at a constant 25° C. and a day/night 12:12 alternation.\nThe insects are removed in an amount of 2 soldiers per 28 workers.\nThe tests are carried out in hermetically closed glass jars having a volume of 3 L and containing the insects.\nThe product to be tested is introduced through a hole 2 mm in diameter with the aid of a micropipette and deposited on a filter paper (2×5 cm: Whatman No. 1) suspended at the centre of the jar where it migrates by capillarity and vaporizes rapidly. The hole is hermetically closed again as quickly as possible.\nThe jars are placed for 24 hours in an incubator under the same breeding conditions.\nAt the end of 24 hours, after a few instants of aeration, a first count is made and then the insects are placed again under breeding conditions for another 24 hours. The counting of the mortality is therefore carried out at the end of 48 hours. […] Each test is carried out on a population of 30 to 50 insects and is accompanied by a control without treatment. Several repeats are carried out with doses close to the LC50."}, "[3]": {"test_system": "termite (Reticulitermes santonensis)", "conditions": "value given for comparison, not among the 3 products tested; cited from earlier work"}, "[4]": {"test_system": "eggs of nematodes (Meloidogyne arenaria)", "test": "Ovicidal activity on the eggs of nematodes (number of hatchings)", "format": "in vivo", "method": "as §1"}},
  "data": [
    {"compound": "C=CCS[S+]([O-])CC=C", "note": "(centres unmarked) [allicin, diallyl thiosulphinate]", "values": [
      {"measurement": "Nematostatic and nematicidal activity", "setting": "[1]; at much lower concentrations (0.0003-0.003% by mass)", "result": "high nematostatic and nematicidal activity"},
      {"measurement": "Mortality rate after 72 h", "setting": "[1]; concentration by mass 0.0003 %", "result": 12, "unit": "%"},
      {"measurement": "Immobility rate after 48 h", "setting": "[1]; concentration by mass 0.0003 %", "result": 49, "unit": "%"},
      {"measurement": "Immobility rate after 24 h", "setting": "[1]; concentration by mass 0.0003 %, aqueous solution", "result": 7, "unit": "%"},
      {"measurement": "Mortality rate after 72 h", "setting": "[1]; concentration by mass 0.0015 %", "result": 45, "unit": "%"},
      {"measurement": "Immobility rate after 48 h", "setting": "[1]; concentration by mass 0.0015 %", "result": 85, "unit": "%"},
      {"measurement": "Immobility rate after 24 h", "setting": "[1]; concentration by mass 0.0015 %, aqueous solution", "result": 19, "unit": "%"},
      {"measurement": "Mortality rate after 72 h", "setting": "[1]; concentration by mass 0.003 %", "result": 63, "unit": "%"},
      {"measurement": "Immobility rate after 48 h", "setting": "[1]; concentration by mass 0.003 %", "result": 65, "unit": "%"},
      {"measurement": "Immobility rate after 24 h", "setting": "[1]; concentration by mass 0.003 %, aqueous solution", "result": 49, "unit": "%"},
      {"measurement": "LC50 (Probits method)", "setting": "[2]", "result": 0.010, "unit": "g × 24 h/m^3"}
    ]},
    {"compound": "C=CCSSCC=C", "note": "[DADS, diallyldisulphide]", "values": [
      {"measurement": "LC50 (Probits method)", "setting": "[2]", "result": 0.011, "unit": "g × 24 h/m^3"}
    ]},
    {"compound": "CBr", "note": "[methyl bromide]", "values": [
      {"measurement": "LC50 of the comparison fumigant", "setting": "[3]", "result": 0.1, "unit": "g×24 h/m^3"}
    ]},
    {"compound": "CCCSSCCC", "note": "[DPDS, dipropyl disulphide]", "values": [
      {"measurement": "Concentration for total efficacy (100% mortality)", "setting": "[1]; by mass, aqueous solution", "result": "greater than or equal to 1%"},
      {"measurement": "Mortality rate after 72 h", "setting": "[1]; concentration by mass 1 %", "result": 100, "unit": "%"},
      {"measurement": "Immobility rate after 48 h", "setting": "[1]; concentration by mass 1 %", "result": 100, "unit": "%"},
      {"measurement": "Immobility rate after 24 h", "setting": "[1]; concentration by mass 1 %, aqueous solution", "result": 89, "unit": "%"},
      {"measurement": "Mortality rate after 72 h", "setting": "[1]; concentration by mass 5 %", "result": 100, "unit": "%"},
      {"measurement": "Immobility rate after 48 h", "setting": "[1]; concentration by mass 5 %", "result": 100, "unit": "%"},
      {"measurement": "Immobility rate after 24 h", "setting": "[1]; concentration by mass 5 %, aqueous solution", "result": 93, "unit": "%"},
      {"measurement": "Mortality rate after 72 h", "setting": "[1]; concentration by mass 10 %", "result": 100, "unit": "%"},
      {"measurement": "Immobility rate after 48 h", "setting": "[1]; concentration by mass 10 %", "result": 100, "unit": "%"},
      {"measurement": "Immobility rate after 24 h", "setting": "[1]; concentration by mass 10 %, aqueous solution", "result": 95, "unit": "%"},
      {"measurement": "Nematostatic and nematicidal activity", "setting": "[1]; concentration of greater than or equal to 1%", "result": "high nematostatic and nematicidal activity"},
      {"measurement": "Ovicidal activity", "setting": "[4]; 1-10 % by mass", "result": "very high ovicidal activity"},
      {"measurement": "Number of hatchings (cumulative)", "setting": "[4]; concentration by mass 1 %, D5, control 550", "result": 117},
      {"measurement": "Number of hatchings (cumulative)", "setting": "[4]; concentration by mass 1 %, D8, control 810", "result": 183},
      {"measurement": "Number of hatchings (cumulative)", "setting": "[4]; concentration by mass 1 %, D12, control 990", "result": 200},
      {"measurement": "Number of hatchings (cumulative)", "setting": "[4]; concentration by mass 1 %, D15, control 1 030", "result": 200},
      {"measurement": "Number of hatchings (cumulative)", "setting": "[4]; concentration by mass 1 %, D19, control 1 030", "result": 200},
      {"measurement": "Number of hatchings (cumulative)", "setting": "[4]; concentration by mass 5 %, D5, control 550", "result": 67},
      {"measurement": "Number of hatchings (cumulative)", "setting": "[4]; concentration by mass 5 %, D8, control 810", "result": 67},
      {"measurement": "Number of hatchings (cumulative)", "setting": "[4]; concentration by mass 5 %, D12, control 990", "result": 67},
      {"measurement": "Number of hatchings (cumulative)", "setting": "[4]; concentration by mass 5 %, D15, control 1 030", "result": 67},
      {"measurement": "Number of hatchings (cumulative)", "setting": "[4]; concentration by mass 5 %, D19, control 1 030", "result": 67},
      {"measurement": "Number of hatchings (cumulative)", "setting": "[4]; concentration by mass 10 %, D5, control 550", "result": 33},
      {"measurement": "Number of hatchings (cumulative)", "setting": "[4]; concentration by mass 10 %, D8, control 810", "result": 33},
      {"measurement": "Number of hatchings (cumulative)", "setting": "[4]; concentration by mass 10 %, D12, control 990", "result": 33},
      {"measurement": "Number of hatchings (cumulative)", "setting": "[4]; concentration by mass 10 %, D15, control 1 030", "result": 33},
      {"measurement": "Number of hatchings (cumulative)", "setting": "[4]; concentration by mass 10 %, D19, control 1 030", "result": 33},
      {"measurement": "Reduction in the number of hatchings", "setting": "[4]; on the last day of observation", "result": "approximately 97%"}
    ]}
  ]
}
